For 3 compounds, IC50 results are on record in patent US6586453B2, “Substituted thiazoles and the use thereof as inhibitors of plasminogen activator inhibitor-1” (3-Dimensional Pharmaceuticals, Inc., priority 2000, dated 2003).

Each structure is given as a SMILES string.

PAI-1, sequence (P05121 24-402): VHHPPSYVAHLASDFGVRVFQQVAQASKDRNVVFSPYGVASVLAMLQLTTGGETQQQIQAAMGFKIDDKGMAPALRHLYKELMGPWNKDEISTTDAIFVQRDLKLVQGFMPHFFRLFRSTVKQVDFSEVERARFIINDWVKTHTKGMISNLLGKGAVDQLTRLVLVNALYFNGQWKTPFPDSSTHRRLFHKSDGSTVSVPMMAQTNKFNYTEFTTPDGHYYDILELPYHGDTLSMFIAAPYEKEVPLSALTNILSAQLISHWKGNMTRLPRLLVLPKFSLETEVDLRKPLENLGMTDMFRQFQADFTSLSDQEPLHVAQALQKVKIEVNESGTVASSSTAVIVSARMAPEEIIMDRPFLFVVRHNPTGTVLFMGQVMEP

The test concerns the target PAI-1 (Homo sapiens, UniProt P05121). The experiment in a line: PAI-1 assay (direct chromogenic assay, inhibitory activity of PAI-1 against uPA). Type of test: biochemical. The settings on record: substrate N-CBZ-VAL-GLY-ARG p-nitroanilide, 10 minute incubation at 37° C., read-out: PAI-1 inhibitory activity in vitro, IC50. Here is the method:
The inhibitory activity of PAI-1 against uPA was measured by a direct chromogenic assay using the substrate N-CBZ-VAL-GLY-ARG p-nitroanilide. The tested compound was added to PAI-1 which had been diluted in activity assay buffer (0.05M Hepes, pH 7.5, 0.15M NaCl, containing 0.05% N-octyl-D-glucopyranoside and 250 μg/ml bovine serum albumin). After a 10 minute incubation at 37° C., uPA was added (0.04 units/assay), followed immediately by the addition of substrate. After reequilibration at 37° C., residual uPA activity was quantified by measuring the change in absorbance at 405 nm over 12 minutes. The concentration of active PAI-1 in the assays was the amount required to inhibit 80-85% of uPA as compared to samples containing uPA alone.
Compounds No. 1 to 37 were tested in the PAI-1 assay as described above.
For the compound `CCc1cc2c(cc1-c1csc(Nc3ccc(C(=O)O)cc3)n1)C(C)(C)CCC2(C)C` [Compound 2, 4-{[4-(3-ethyl-5,5,8,8-tetramethyl-2-5,6,7,8-tetrahydronaphthyl)-1,3-thiazol-2-yl]amino}benzoic acid], the IC50 (commonly the concentration that inhibits the measured activity by half) is 1.8 µM.

On to `N#Cc1ccc(Nc2nc(-c3ccc(-c4ccccc4)cc3)cs2)cc1` [Compound 11, 4-{[4-(4-phenylphenyl)-1,3-thiazol-2-yl]amino}benzenecarbonitrile], for which the IC50 worked out at 1.6 µM. To `CCc1cc2c(cc1-c1csc(Nc3cccc(C(=O)O)c3)n1)C(C)(C)CCC2(C)C` [Compound 3] belongs 1.1 µM.
